The nature of series [1]: Thermodynamic solubility of the polymorphic forms in organic solvents (HPLC quantification). Format: physicochemical. As for the experimental part: The thermodynamic solubility of FORM 1, FORM 2, FORM 4, and FORM 6 of 1,6-Bis [3-(3-carboxymethylphenyl)-4-(2-α-D-mannopyranosyloxy)-phenyl] hexane (compound of formula (I)) was determined in several organic solvents by suspending sufficient compound to give a maximum final concentration. Quantification was by reverse phase HPLC with gradient solution with reference to a standard solution of FORM B of the compound of formula (I) at 0.25 mg/ml. The suspensions were equilibrated at 27° C. for 24 hours with shaking. All suspensions were filtered though a glass fibre C filter. The filtrate was then diluted by an appropriate factor in 50:50 ethanol:water apart from isopropyl myristate which was diluted in ethanol to avoid emulsion formation.
Solubilities were calculated using the peak areas determined by the peak found at the same retention time as the principal peak in the standard injection.

A short description of series [2]: Thermodynamic solubility of the polymorphic forms in water (shake flask technique, UV). Format: physicochemical. The conditions noted are these: pure water, over night at 25° C., triplicate. As for the experimental part:
The thermodynamic solubility of FORM 1, FORM 2, and FORM 3 of 1,6-Bis [3-(3-carboxymethylphenyl)-4-(2-α-D-mannopyranosyloxy)-phenyl] hexane (compound of formula (I)) was determined in water by employing the shake flask technique. The sample was added to pure water in a Safelock-tube (Eppendorf, Germany) under vigorous shaking until a white precipitate was formed. The saturated solution was incubated over night at 25° C. in an Eppendorf Thermomixer operated at 700 RPM. The suspension was cleared by centrifugation at 13.000 RPM at room temperature, and the supernatant was carefully collected. The supernatant was further purified by vacuum-filtration through a Millipore solubility filter plate (Millipore, Molsheim, France).
The UV absorption of the filtrate was measured against pure water using a Spectramax250 (Molecular Devices, Sunnyvale, Calif.) operated with Softmax Pro v. 4.8 software, using the application “Mscreen solubility quantify” in the ADME package. The sample concentration was calculated using a 5-point linear calibration line of the compound of formula (I) in acetonitrile:pure water (1:1 vol:vol). Measurements have been performed in triplicate.

[3] abbreviates: PEG 300, equilibrated at 27° C. for 24 hours with shaking.
The mark [4] stands for this setting: Triacetin, equilibrated at 27° C. for 24 hours with shaking.
Setting [5] is: ethanol, equilibrated at 27° C. for 24 hours with shaking.
Where [6] appears, read: equilibrated at 27° C. for 24 hours with shaking.

≈ marks a conversion by molar mass, not a printed value.

The term solubility denotes how much of the substance goes into solution per volume. For the molecule `O=C(O)Cc1cccc(-c2cc(CCCCCCc3ccc(O[C@H]4O[C@H](CO)[C@@H](O)[C@H](O)[C@@H]4O)c(-c4cccc(CC(=O)O)c4)c3)ccc2O[C@H]2O[C@H](CO)[C@@H](O)[C@H](O)[C@@H]2O)c1` [FORM 1, 1,6-Bis [3-(3-carboxymethylphenyl)-4-(2-α-D-mannopyranosyloxy)-phenyl] hexane], the “Solubility ranking among the FORMS in PEG 300 (in words)” value in series [1] (PEG 300, compared with other FORMS) is recorded as “highest solubility”. The “Solubility in PEG 300 (Polyethylene glycol 300)” value in series [1] (setting [3]) was 205 mg/mL (≈ 238 mM). Also, the “Solubility ranking among the FORMS in Triacetin (in words)” value in series [1] (Triacetin, compared with other FORMS) is listed as “highest solubility”. Also, in series [1] (setting [4]), the “Solubility in Triacetin (glycerin triacetate)” value (shortened to “Solubility in Triacetin”) amounted to 0.056 mg/mL (≈ 0.0649 mM). In series [1] (setting [5]), the “Solubility in EtOH (Ethanol)” value was 4.2 mg/mL (≈ 4.87 mM). For the same molecule, the “Solubility in IPA (Isopropyl alcohol)” value in series [1] (setting [6]) turned out to be 3.9 mg/mL (≈ 4.52 mM). Besides, the solubility at 24 h in series [1] (propylene glycol, 27 °C, organic solvent or mixture, thermodynamic from solid, equilibrated at 27° C. for 24 hours with shaking) is 199 mg/mL (≈ 231 mM). For the same molecule, in series [1] (propylene glycol, compared with other FORMS), the “Solubility ranking among the FORMS in propylene glycol (in words)” value was “highest solubility”. This molecule had a solubility in series [2] (25 °C, water, thermodynamic from solid) of 0.022 mg/mL (≈ 0.0255 mM).

With `O=C(O)Cc1cccc(-c2cc(CCCCCCc3ccc(O[C@H]4O[C@H](CO)[C@@H](O)[C@H](O)[C@@H]4O)c(-c4cccc(CC(=O)O)c4)c3)ccc2O[C@H]2O[C@H](CO)[C@@H](O)[C@H](O)[C@@H]2O)c1` [FORM 2, 1,6-Bis [3-(3-carboxymethylphenyl)-4-(2-α-D-mannopyranosyloxy)-phenyl] hexane], in series [1] (setting [3]), the “Solubility in PEG 300 (Polyethylene glycol 300)” value turned out to be 102 mg/mL (≈ 118 mM). For the same molecule, the “Solubility in Triacetin” value in series [1] (setting [4]) is 0.0083 mg/mL (≈ 0.00962 mM). In addition, the “Solubility in EtOH (Ethanol)” value in series [1] (setting [5]) amounted to 4.2 mg/mL (≈ 4.87 mM). The “Solubility in IPA (Isopropyl alcohol)” value in series [1] (setting [6]) came to 0.52 mg/mL (≈ 0.603 mM). The “Solubility in Propylene Glycol” value in series [1] (propylene glycol, equilibrated at 27° C. for 24 hours with shaking) amounted to 104 mg/mL (≈ 121 mM). The same molecule showed a Solubility in water in series [2] of 0.015 mg/mL (≈ 0.0174 mM).

The molecule `O=C(O)Cc1cccc(-c2cc(CCCCCCc3ccc(O[C@H]4O[C@H](CO)[C@@H](O)[C@H](O)[C@@H]4O)c(-c4cccc(CC(=O)O)c4)c3)ccc2O[C@H]2O[C@H](CO)[C@@H](O)[C@H](O)[C@@H]2O)c1` [FORM 3, 1,6-Bis [3-(3-carboxymethylphenyl)-4-(2-α-D-mannopyranosyloxy)-phenyl] hexane] returned a Solubility in water in series [2] of 0.014 mg/mL (≈ 0.0162 mM).

As to `O=C(O)Cc1cccc(-c2cc(CCCCCCc3ccc(O[C@H]4O[C@H](CO)[C@@H](O)[C@H](O)[C@@H]4O)c(-c4cccc(CC(=O)O)c4)c3)ccc2O[C@H]2O[C@H](CO)[C@@H](O)[C@H](O)[C@@H]2O)c1` [FORM 4, 1,6-Bis [3-(3-carboxymethylphenyl)-4-(2-α-D-mannopyranosyloxy)-phenyl] hexane], the “Solubility in PEG 300 (Polyethylene glycol 300)” value in series [1] (PEG 300, equilibrated at 27° C. for 24 hours with shaking, listed as 4) worked out at 159 mg/mL (≈ 184 mM). Further, in series [1] (setting [4]), the “Solubility in Triacetin” value stood at 0.02 mg/mL (≈ 0.0232 mM). Also, in series [1] (ethanol, compared with FORM 1, 2, 4, 6), the “Solubility ranking among the FORMS in ethanol (in words)” value was “highest solubility”. Further, the “Solubility in EtOH (Ethanol)” value in series [1] (ethanol, equilibrated at 27° C. for 24 hours with shaking, listed as 4) was 48 mg/mL (≈ 55.6 mM). Moreover, in series [1] (equilibrated at 27° C. for 24 hours with shaking, listed as 4), the “Solubility in IPA (Isopropyl alcohol)” value stood at 1.2 mg/mL (≈ 1.39 mM). Further, in series [1] (propylene glycol, equilibrated at 27° C. for 24 hours with shaking, listed as 4), the “Solubility in Propylene Glycol” value is 165 mg/mL (≈ 191 mM).

In the case of `O=C(O)Cc1cccc(-c2cc(CCCCCCc3ccc(O[C@H]4O[C@H](CO)[C@@H](O)[C@H](O)[C@@H]4O)c(-c4cccc(CC(=O)O)c4)c3)ccc2O[C@H]2O[C@H](CO)[C@@H](O)[C@H](O)[C@@H]2O)c1` [FORM 6, 1,6-Bis [3-(3-carboxymethylphenyl)-4-(2-α-D-mannopyranosyloxy)-phenyl] hexane], in series [1] (IPA, compared with FORM 1, 2, 4, 6), the “Solubility ranking among the FORMS in IPA (in words)” value is listed as “highest solubility”. For the same molecule, the “Solubility in PEG 300 (Polyethylene glycol 300)” value in series [1] (PEG 300, equilibrated at 27° C. for 24 hours with shaking, listed as 6) is 122 mg/mL (≈ 141 mM). Also, the “Solubility in EtOH (Ethanol)” value in series [1] (ethanol, equilibrated at 27° C. for 24 hours with shaking, listed as 6) came out at 20 mg/mL (≈ 23.2 mM). Further, the “Solubility in IPA (Isopropyl alcohol)” value in series [1] (equilibrated at 27° C. for 24 hours with shaking, listed as 6) was found to be 27 mg/mL (≈ 31.3 mM). Besides, in series [1] (propylene glycol, equilibrated at 27° C. for 24 hours with shaking, listed as 6), the “Solubility in Propylene Glycol” value came out at 170 mg/mL (≈ 197 mM).

For the origin of these results see patent publication US8039601B1, “Crystalline forms of 1,6-Bis [3-(3-carboxymethylphenyl)-4-(2-α-D-mannopyranosyloxy)-phenyl] hexane” (Revotar Biopharmaceuticals AG, priority 2006, dated 2011).
